# Laboratory results as given in PubChem BioAssay (NCI).
#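 1) Cells in 96-well plates. 2) Compound, 48 h, 5 concentrations. 3) Linear interpolation between surrounding doses. 4) Unreached endpoint = highest concentration. TGI marks complete inhibition of growth.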
# Tested on: SN12K1 renal
# Experiment: inhibition of tumour cell growth, NCI panel, 48 h
compound,measurement,value
C[C@H](N)C(=O)N[C@@H]1[C@H]2C(=C(O)C[C@@H](O)[C@@H]2O)C(=O)O[C@]1(C)C(Cl)Cl,TGI,1580 nM
